Where two headings read alike, the source gives them in different places.
What was measured:
[1] = target: T1, cytochrome bo3 (bo3-only E. coli cells) (Escherichia coli, UniProt P0ABI8); assay: O2 consumption (aerobic respiration) of bo3-only E. coli cell suspensions; assay type: cell-based; settings: for IC50: read-out: apparent IC50
T1 construct: the oxidases were in vivo conditions, i.e., integrated into native bacterial membranes; endogenous in cells; host or cells: E. coli TBE025 (MG1655 ΔcydB nuoB appB::kan); whole cells (A3) or membranes isolated from them (A7)
Method: (§1) The CO and N2 gases were purchased from Linde (Danbury, CT, USA) and Air Liquide (Air Liquide Italia Spa, Milano, Italy), respectively. Other chemicals were purchased from Merck KGaA (Darmstadt, Germany). A stock solution of CO or N2 was prepared by equilibrating degassed water with the pure gas at 1 atm and room temperature, yielding 1 mM CO and 0.7 mM N2 in solution. E. coli respiratory mutant strains TBE025 (MG1655 ΔcydB nuoB appB::kan), TBE026 (MG1655 ΔcydB nuoB cyoB::kan), and TBE037 (MG1655 ΔappB nuoB cyoB::kan), which respectively express cytochrome bo3, cytochrome bd-II, or cytochrome bd-I as the sole terminal oxidase, were used. E. coli cultures were grown in Luria–Bertani (LB) medium supplemented with 30 μg/mL kanamycin, at 37 °C and 200 rpm. In the case of growth studies, after inoculation at an OD600 of 0.15 ± 0.03, the cells were grown in 50 mL rubber-stoppered flasks in 16 mL of air-equilibrated LB at 37 °C for 60 min; when OD600 reached 0.4 ± 0.08, they were bubbled for 30 s with either CO (pure gas at 1 atm and room temperature) or N2 (pure gas at 1 atm and room temperature) as a control to yield a final concentration of both gases of ~20%. The gas percentage was assessed by taking into account the different O2 concentrations, present in equal volumes of LB equilibrated with air or flushed with CO/N2 for 30 s, and calculated according to the following equation: Gas % = ([O2] air equilibrated − [O2] gas flushed)/[O2] air equilibrated × 100. [O2] air equilibrated and [O2] gas flushed are the O2 concentration values measured in the degassed chamber of a high-resolution respirometer (Oxygraph-2k, Oroboros Instruments GmbH, Innsbruck, Austria) of non-fluxed and fluxed E. coli cultures with CO or N2, respectively. The growth of the E. coli cultures was then monitored via a standard method using optical density measurements in an Eppendorf BioSpectrometer basic at 600 nm every 30 min. When the OD600 was above 1, cultures were diluted before reading.
(§2) Oxygraphic measurements were performed at 25 °C in 50 mM K/phosphate pH 7.0, using a high-resolution respirometer (Oxygraph-2k, Oroboros Instruments GmbH, Innsbruck, Austria) equipped with two 1.5-mL chambers. The O2 consumption of E. coli cells was followed with endogenous reductants. In the case of isolated membranes, O2 consumption was measured in the presence of 2.5 mM dithiothreitol (DTT) and 2.5 μM 2,3-dimethoxy-5-methyl-6-(3-methyl-2-butenyl)-1,4-benzoquinone (Q1), an artificial reducing couple specific for quinol oxidases. The catalytic O2-consuming activity was obtained by subtracting the non-enzymatic O2 consumption (Q1/DTT autoxidation in the absence of the membranes) from the O2 consumption rate measured after the addition of membranes.
UV–visible absorption spectra were recorded to estimate the amount of each terminal oxidase present in cell suspensions. For this purpose, an Agilent Cary 60 UV-Vis or a Varian Cary 300 Bio UV-Visible spectrophotometer was used.
Data analysis was carried out using software packages Origin v7.0 (OriginLab Corporation, Northampton, MA, USA) and GIM (Scientific Graphic Interactive Management System developed by A.L. Drachev in Lomonosov Moscow State University). The percentage inhibition of O2 consumption of cell suspensions (i%) was calculated using the equation i% = ((V0 − V0,i)/V0)·100, where V0 and V0,i are the initial rates in the absence and in the presence of the inhibitor (CO), respectively. The apparent IC50 values of cytochromes bd-II and bo3 for CO were estimated by plotting i% as a function of CO concentration added ([CO]0). The data were fitted to the standard hyperbolic equation i% = imax%·[CO]0/(IC50 + [CO]0) using a built-in approximation function (‘Hyperbola function’) in ‘Advanced Fitting tool’ in the Origin program. The imax% parameter is a theoretical maximum percent inhibition. […]

[2] = system: E. coli wild-type strain MG1655 cells; assay: O2 consumption of wild-type E. coli cell suspensions at high and low OD; assay type: cell-based, Escherichia coli
[3] = target: T2, cytochrome bd-I (bd-I-only E. coli membranes) (Escherichia coli, UniProt P0ABJ9); assay: O2 reductase activity of isolated bd-I-containing membranes; assay type: biochemical
T2 construct: the oxidases were in vivo conditions, i.e., integrated into native bacterial membranes; endogenous in cells; host or cells: E. coli TBE037 (MG1655 ΔappB nuoB cyoB::kan); whole cells (A1) or membranes isolated from them (A5)
Method: (§3) To isolate membranes from E. coli respiratory mutants expressing only one terminal quinol oxidase (cytochrome bd-I or cytochrome bd-II or cytochrome bo3), cell cultures were grown in LB medium until an OD600 of about 2 was reached. The cells were then pelleted by centrifugation at 10,000 rpm for 10 min and washed twice in 20 mM TRIS pH 8.3 containing 0.5 mM EDTA and 5 mM MgSO4. The cells were resuspended in the same buffer containing 1 mg/mL lysozyme and incubated for two hours on ice. A spatula tip of DNAse and RNase was then added, and the cells were lysed by sonication. Cell debris was removed by centrifugation at 15,000 rpm for 10 min. Membrane fractions were collected and stored at −80 °C. The protein content was determined using the Bradford method, using the Bradford reagent (Sigma) with bovine serum albumin as standard.
as §2, with “The catalytic O2-consuming activity was obtained by subtracting the non-enzymatic O2 consumption (Q1/DTT autoxidation in the absence of the membranes) from the O2 consumption rate measured after the addition of membranes.” left out

[4] = target: T3, cytochrome bd-II (bd-II-only E. coli membranes) (Escherichia coli, UniProt P26459); assay: O2 reductase activity of isolated bd-II-containing membranes; assay type: biochemical
T3 construct: the oxidases were in vivo conditions, i.e., integrated into native bacterial membranes; endogenous in cells; host or cells: E. coli TBE026 (MG1655 ΔcydB nuoB cyoB::kan); whole cells (A2) or membranes isolated from them (A6)
Method: as §3
as §2, with “The catalytic O2-consuming activity was obtained by subtracting the non-enzymatic O2 consumption (Q1/DTT autoxidation in the absence of the membranes) from the O2 consumption rate measured after the addition of membranes.” left out

[5] = target: T4, cytochrome bo3 (bo3-only E. coli membranes) (Escherichia coli, UniProt P0ABI8); assay: O2 reductase activity of isolated bo3-containing membranes; assay type: biochemical
T4 construct: the oxidases were in vivo conditions, i.e., integrated into native bacterial membranes; endogenous in cells; host or cells: E. coli TBE025 (MG1655 ΔcydB nuoB appB::kan); whole cells (A3) or membranes isolated from them (A7)
Method: as §3
as §2, with “The catalytic O2-consuming activity was obtained by subtracting the non-enzymatic O2 consumption (Q1/DTT autoxidation in the absence of the membranes) from the O2 consumption rate measured after the addition of membranes.” left out

[6] = system: E. coli mutant strain expressing cytochrome bd-I as the sole terminal oxidase; assay: Cell growth (OD600) of bd-I-only strain in presence of CO; assay type: cell-based, Escherichia coli; settings: ~20% CO added at 60 min after start of growth in air, vs ~20% N2 control
Method: as §1, with “E. coli cultures were grown in Luria–Bertani (LB) medium supplemented with 30 μg/mL kanamycin, at 37 °C and 200 rpm. In the case of growth studies, after inoculation at an OD600 of 0.15 ± 0.03, the cells were grown in 50 mL rubber-stoppered flasks in 16 mL of air-equilibrated LB at 37 °C for 60 min; when OD600 reached 0.4 ± 0.08, they were bubbled for 30 s with either CO (pure gas at 1 atm and room temperature) or N2 (pure gas at 1 atm and room temperature) as a control to yield a final concentration of both gases of ~20%.” left out, “When the OD600 was above 1, cultures were diluted before reading.” left out

[7] = system: E. coli mutant strain expressing cytochrome bd-II as the sole terminal oxidase; assay: Cell growth (OD600) of bd-II-only strain in presence of CO; assay type: cell-based, Escherichia coli; settings: ~20% CO added at 60 min after start of growth in air, vs ~20% N2 control
Method: as §1, with “E. coli cultures were grown in Luria–Bertani (LB) medium supplemented with 30 μg/mL kanamycin, at 37 °C and 200 rpm. In the case of growth studies, after inoculation at an OD600 of 0.15 ± 0.03, the cells were grown in 50 mL rubber-stoppered flasks in 16 mL of air-equilibrated LB at 37 °C for 60 min; when OD600 reached 0.4 ± 0.08, they were bubbled for 30 s with either CO (pure gas at 1 atm and room temperature) or N2 (pure gas at 1 atm and room temperature) as a control to yield a final concentration of both gases of ~20%.” left out, “When the OD600 was above 1, cultures were diluted before reading.” left out

[8] = system: E. coli mutant strain expressing cytochrome bo3 as the sole terminal oxidase; assay: Cell growth (OD600) of bo3-only strain in presence of CO; assay type: cell-based, Escherichia coli; settings: ~20% CO added at 60 min after start of growth in air, vs ~20% N2 control
Method: as §1, with “E. coli cultures were grown in Luria–Bertani (LB) medium supplemented with 30 μg/mL kanamycin, at 37 °C and 200 rpm. In the case of growth studies, after inoculation at an OD600 of 0.15 ± 0.03, the cells were grown in 50 mL rubber-stoppered flasks in 16 mL of air-equilibrated LB at 37 °C for 60 min; when OD600 reached 0.4 ± 0.08, they were bubbled for 30 s with either CO (pure gas at 1 atm and room temperature) or N2 (pure gas at 1 atm and room temperature) as a control to yield a final concentration of both gases of ~20%.” left out, “When the OD600 was above 1, cultures were diluted before reading.” left out

[9] = target: T5, cytochrome bd-II (bd-II-only E. coli cells) (Escherichia coli, UniProt P26459); parameters: method as in PMID 37515940; settings: [O2] = 150 μM; cited from earlier work
T5 construct: the oxidases were in vivo conditions, i.e., integrated into native bacterial membranes; endogenous in cells; host or cells: E. coli TBE026 (MG1655 ΔcydB nuoB cyoB::kan); whole cells (A2) or membranes isolated from them (A6)

[10] = target: T1, cytochrome bo3 (bo3-only E. coli cells); parameters: method as in PMID 38188931; settings: [O2] = 150 μM; cited from earlier work
[11] = system: cytochrome bd-I heme d2+; settings: fully reduced form of the CO-bound enzyme; cited from earlier work
[12] = system: terminal oxidase operons cyoABCDE, cydABX, appCBX; parameters: method as in PMID 26907100; settings: wild-type E. coli exposed to CO gas, cited from earlier work

T1 sequence (P0ABI8 whole entry): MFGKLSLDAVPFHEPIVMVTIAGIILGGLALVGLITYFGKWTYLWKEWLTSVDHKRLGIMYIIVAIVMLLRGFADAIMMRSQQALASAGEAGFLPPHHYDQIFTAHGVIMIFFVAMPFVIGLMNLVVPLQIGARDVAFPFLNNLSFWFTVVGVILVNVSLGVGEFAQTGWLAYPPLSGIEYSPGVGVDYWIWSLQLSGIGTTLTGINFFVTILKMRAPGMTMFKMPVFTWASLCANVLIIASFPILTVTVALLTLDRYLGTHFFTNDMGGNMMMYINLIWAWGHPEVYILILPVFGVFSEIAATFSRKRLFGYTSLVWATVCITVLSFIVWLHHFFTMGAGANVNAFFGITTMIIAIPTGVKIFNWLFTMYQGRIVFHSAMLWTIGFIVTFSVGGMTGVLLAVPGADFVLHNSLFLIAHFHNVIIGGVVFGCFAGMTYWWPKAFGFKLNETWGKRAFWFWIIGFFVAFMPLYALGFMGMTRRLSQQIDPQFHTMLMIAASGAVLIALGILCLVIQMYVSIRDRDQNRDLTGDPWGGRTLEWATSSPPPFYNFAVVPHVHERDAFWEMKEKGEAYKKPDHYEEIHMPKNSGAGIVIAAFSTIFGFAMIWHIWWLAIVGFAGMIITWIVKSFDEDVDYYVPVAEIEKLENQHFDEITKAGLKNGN
T1 sequence (P0ABJ1 25-315 partner): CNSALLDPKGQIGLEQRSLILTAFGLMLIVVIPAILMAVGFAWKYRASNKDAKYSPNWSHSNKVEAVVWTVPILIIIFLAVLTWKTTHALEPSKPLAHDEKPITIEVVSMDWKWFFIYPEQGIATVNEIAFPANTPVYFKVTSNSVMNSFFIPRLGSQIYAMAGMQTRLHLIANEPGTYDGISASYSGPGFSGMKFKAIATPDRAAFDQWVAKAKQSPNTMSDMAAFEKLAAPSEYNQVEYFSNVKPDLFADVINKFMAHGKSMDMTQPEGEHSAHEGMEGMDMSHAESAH
T1 sequence (P0ABJ3 whole entry partner): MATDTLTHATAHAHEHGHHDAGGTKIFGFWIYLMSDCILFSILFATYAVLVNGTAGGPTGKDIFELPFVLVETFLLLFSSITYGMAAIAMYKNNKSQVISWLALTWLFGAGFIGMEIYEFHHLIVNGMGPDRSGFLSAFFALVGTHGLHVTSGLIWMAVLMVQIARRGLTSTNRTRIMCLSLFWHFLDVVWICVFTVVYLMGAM
T1 sequence (P0ABJ6 whole entry partner): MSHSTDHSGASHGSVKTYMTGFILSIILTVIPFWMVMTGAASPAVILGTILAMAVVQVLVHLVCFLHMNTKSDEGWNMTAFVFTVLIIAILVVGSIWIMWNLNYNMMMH
T4 sequence (P0ABI8 whole entry): as the sequence (P0ABI8 whole entry) above
T4 sequence (P0ABJ1 25-315 partner): as the sequence (P0ABJ1 25-315 partner) above
T4 sequence (P0ABJ3 whole entry partner): as the sequence (P0ABJ3 whole entry partner) above
T4 sequence (P0ABJ6 whole entry partner): as the sequence (P0ABJ6 whole entry partner) above
T3 sequence (P26459 whole entry): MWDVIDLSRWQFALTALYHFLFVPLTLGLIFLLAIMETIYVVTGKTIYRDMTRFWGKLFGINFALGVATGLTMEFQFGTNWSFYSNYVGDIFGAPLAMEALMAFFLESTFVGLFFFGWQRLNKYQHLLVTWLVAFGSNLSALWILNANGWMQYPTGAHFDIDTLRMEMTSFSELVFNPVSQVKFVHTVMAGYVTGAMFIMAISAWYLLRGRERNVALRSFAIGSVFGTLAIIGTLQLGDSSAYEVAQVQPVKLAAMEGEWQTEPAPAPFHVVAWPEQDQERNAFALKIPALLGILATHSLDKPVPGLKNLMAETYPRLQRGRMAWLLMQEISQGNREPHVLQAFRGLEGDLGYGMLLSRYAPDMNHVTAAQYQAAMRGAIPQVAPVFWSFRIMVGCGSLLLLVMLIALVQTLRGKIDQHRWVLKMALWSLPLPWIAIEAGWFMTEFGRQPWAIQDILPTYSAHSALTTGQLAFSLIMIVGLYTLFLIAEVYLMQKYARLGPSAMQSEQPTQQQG
T3 sequence (P26458 whole entry partner): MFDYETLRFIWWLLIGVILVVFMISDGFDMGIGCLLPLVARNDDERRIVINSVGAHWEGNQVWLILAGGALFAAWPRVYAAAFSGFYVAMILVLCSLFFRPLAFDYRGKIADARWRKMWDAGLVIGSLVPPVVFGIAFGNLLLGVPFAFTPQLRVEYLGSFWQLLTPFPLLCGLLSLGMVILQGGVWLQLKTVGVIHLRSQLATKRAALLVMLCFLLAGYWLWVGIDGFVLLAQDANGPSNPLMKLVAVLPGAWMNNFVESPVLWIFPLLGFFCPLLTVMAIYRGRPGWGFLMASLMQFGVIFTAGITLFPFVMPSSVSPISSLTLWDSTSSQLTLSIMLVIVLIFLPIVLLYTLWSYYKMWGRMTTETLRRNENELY
T3 sequence (P24244 whole entry partner): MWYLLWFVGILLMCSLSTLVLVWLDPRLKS
T5 sequence (P26459 whole entry): as the sequence (P26459 whole entry) above
T5 sequence (P26458 whole entry partner): as the sequence (P26458 whole entry partner) above
T5 sequence (P24244 whole entry partner): as the sequence (P24244 whole entry partner) above
T2 sequence (P0ABJ9 whole entry): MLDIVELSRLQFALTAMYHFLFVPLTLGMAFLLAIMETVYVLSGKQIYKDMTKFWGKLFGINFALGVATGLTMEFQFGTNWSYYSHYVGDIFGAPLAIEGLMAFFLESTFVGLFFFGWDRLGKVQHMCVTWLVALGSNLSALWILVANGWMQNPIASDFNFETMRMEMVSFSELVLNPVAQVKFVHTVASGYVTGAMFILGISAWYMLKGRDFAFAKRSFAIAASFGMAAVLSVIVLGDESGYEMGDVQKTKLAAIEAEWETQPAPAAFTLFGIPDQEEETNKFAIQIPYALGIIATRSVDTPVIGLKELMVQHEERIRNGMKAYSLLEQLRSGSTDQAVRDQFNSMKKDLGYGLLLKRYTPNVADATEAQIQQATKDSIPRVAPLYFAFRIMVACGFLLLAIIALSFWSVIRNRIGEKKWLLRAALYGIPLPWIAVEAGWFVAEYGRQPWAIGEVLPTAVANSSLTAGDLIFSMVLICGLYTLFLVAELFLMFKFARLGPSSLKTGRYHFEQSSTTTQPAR
T2 sequence (P0ABK2 whole entry partner): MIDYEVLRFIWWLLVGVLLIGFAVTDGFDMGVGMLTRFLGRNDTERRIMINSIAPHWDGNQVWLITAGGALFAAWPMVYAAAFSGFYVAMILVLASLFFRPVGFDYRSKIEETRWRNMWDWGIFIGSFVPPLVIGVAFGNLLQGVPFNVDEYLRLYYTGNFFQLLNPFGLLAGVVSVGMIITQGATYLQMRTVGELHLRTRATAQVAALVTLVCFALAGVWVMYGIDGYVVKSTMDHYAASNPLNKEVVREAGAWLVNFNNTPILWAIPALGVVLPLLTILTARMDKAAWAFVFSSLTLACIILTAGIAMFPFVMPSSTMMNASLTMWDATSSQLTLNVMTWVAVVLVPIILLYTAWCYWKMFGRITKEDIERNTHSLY
T2 sequence (P56100 whole entry partner): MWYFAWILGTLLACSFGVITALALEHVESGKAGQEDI
T2 sequence (A5A618 whole entry partner): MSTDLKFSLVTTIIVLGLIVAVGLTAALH

SMILES: [C-]#[O+] [CO, Carbon monoxide]
- IC50 ([1]; CO added at [O2] = 100 μM): 131 ± 14 µM
- IC50 ([1]; CO added at [O2] = 200 μM): 330 ± 19.6 µM
- Ki ([1]; estimated from IC50 values at different [O2], assuming competitive inhibition, Km(O2) 6 µM): 8.4 ± 0.7 µM
- sensitivity of O2 consumption to CO ([2]; wild-type cells harvested at high OD600 (prevalent expression of a bd-type oxidase)): low
- sensitivity of O2 consumption to CO ([2]; wild-type cells harvested at low OD600 (prevalent expression of cytochrome bo3)): high
- CO inhibition of O2 reductase activity of membranes [3]: relatively resistant to inhibition by CO
- CO inhibition of O2 reductase activity of membranes [4]: effectively inhibits
- CO inhibition of O2 reductase activity of membranes [5]: effectively inhibits
- effect on cell growth [6]: a minimal effect on cell growth was observed
- effect on cell growth [7]: severely impaired
- effect on cell growth [8]: severely impaired
- IC50 [9]: 187 ± 11.1 µM
- IC50 [10]: 183 ± 13.5 µM
- koff, dissociation of CO from the oxidase [11]: 6.0 ± 0.2 s⁻¹
- decrease in the expression of the cyoABCDE operon ([12]; aerobic conditions): 5- to 10 fold
- increase in the expression of the cydABX operon ([12]; aerobic conditions): 4 fold
- changes in the expression of the appCBX operon [12]: slight

Source: publication PMC10815991, “Membrane-Bound Redox Enzyme Cytochrome bd-I Promotes Carbon Monoxide-Resistant Escherichia coli Growth and Respiration” (International Journal of Molecular Sciences, 2024)
